Assay results taken from paper PMC5703966, “Systemic clearance and brain distribution of carbazole-based cyanine compounds as Alzheimer’s disease drug candidates” (Scientific Reports, 2017).
Where two headings read alike, the source gives them in different places.

How the values were obtained:
[1] = Stability in plasma, microsomes without cofactors and deactivated hepatocytes; type: in vitro ADME; details: ICR/CD-1, mouse and human; all species, 37 °C, more than 4 hours; read-out: half-life elimination (t 1/2) in plasma, microsomes and deactivated hepatocytes
Procedure: page 4: Supplemental Methods Blood-to-plasma ratio […] and incubated for an hour at 37 OC. At the end of the incubation period, plasma (CP) is separated from […] folds acetonitrile (ACN) containing berberine chloride as internal standard (IS) by LC-MS/MS (Analytical method seen below). The blood cell partitioning was calculated as follows. (1) Plasma, liver microsomes and hepatocyte binding by RED device The stability of the compounds in plasma, liver microsomes and hepatocyte were studied to ensure the reliability of the binding data. Hepatocyte was deactivated by leaving them on a bench for 2 days and going through a freeze thaw cycle thereafter. […] were inactivated. All validation compounds were incubated at 37 °C over 4 h, and in triplicate. For […] […] Natural logarithm of peak area ratios (compound peak area normalized by IS peak area) were plotted against time and half-life calculated. […] Aliquots (100 µL) were removed from each side of the insert, and analyzed after protein precipitation using 4 folds acetonitrile (ACN) containing berberine chloride as internal standard (IS) by LC-MS/MS (Analytical me thod seen below). […] In vitro stability in liver microsomes and hepatocytes Half-life (t1/2) of SLM or SLOH in liver microsomes was determined in duplicate. […]

[2] = Systemic clearance and brain distribution in WT and 3 × Tg-AD mice (8 months); type: in vivo, mouse; details: mouse; for Kp: brain interstitial fluid (unbound) versus plasma (unbound), read-out: K puu,brain; for clearance / Vd / half-life / MRT inf: plasma; for Vd: read-out: Vdss; for MRT inf: read-out: MRT 0−∞
Procedure: The transgenic (Tg) AD mice (B6; 129-Psen1 ^tm1Mpm Tg (APPSwe, tauP301L) 1Lfa/Mmjax) and the corresponding wild-type (WT) (B6129SF2/J) mice was obtained from the Jackson Laboratory (Bar Harbor, Maine, USA), and maintained by the Animal Facility of Faculty of Health Sciences in University of Macau. Either 27 WT or AD mice (8 months) were randomly separated into 9 groups with 3 mice at each time point. Blood and brain were collected at time points 0.083, 0.167, 0.25, 0.5, 1, 2, 4, 8 and 16 hours after i.v. dosing (1 mg/kg). Mice were euthanized by isoflurane followed by cervical dislocation. All the plasma, urine, bile and brain samples were stored at −70 °C for subsequent analysis. The analytical methods for systemic and brain PK parameters were shown in supplemental information (Supplemental Methods).
Parameters in animals were determined using non-compartmental analysis. […] Systemic Cl p was calculated as the i.v. dose divided by AUC0−∞ ^iv. The terminal rate constant (K el) was calculated by a linear regression of the log-linear concentration-time curve, and the terminal elimination t 1/2 was calculated as 0.693 divided by K el. Mean residence time from t = 0 to infinity (MRT 0−∞) was calculated as AUMC 0−∞ divided by AUC 0−∞. Apparent steady-state distribution volume (Vd ss) was determined as Cl p multiplied by MRT 0−∞. […] The Cl bile was derived as the amount of (in milligrams) of SLM or SLOH in the bile over the 24-hour interval postdose/AUC0-24h. The influx clearance into brain (K in) was calculated by using the amount of drug in the brain (homogenate) at time t (A, brain (t)) (corrected for the amount of drug remaining in the cerebral vasculature) divided by plasma exposure up to this time point (AUC, plasma (0 − t)). The C u,brain was calculated by A brain (homogenate, ng/g brain) divided by V u,brain (mL/g brain). The unbound ISF to plasma ratio (K puu,brain) was calculated by unbound AUC 0−t of ISF (ng/mL × min) divided by unbound AUC 0–t (ng/mL × min) of plasma.

[3] = 3×Tg-AD (B6;129-Psen1tm1Mpm Tg(APPSwe,tauP301L)1Lfa/Mmjax), iv, 1 mg/kg, AD mice 8 months, 1 mg/kg i.v.
[4] = 3×Tg-AD (B6;129-Psen1tm1Mpm Tg(APPSwe,tauP301L)1Lfa/Mmjax), iv, AD mice 8 months, 1 mg/kg i.v., read-out: Cl p (converted)
[5] = 3×Tg-AD (B6;129-Psen1tm1Mpm Tg(APPSwe,tauP301L)1Lfa/Mmjax), iv, AD mice 8 months, 1 mg/kg i.v.
[6] = B6129SF2/J (WT) and 3×Tg-AD, intravenous, 1 mg/kg, WT and AD mice (8 months), no significant difference, read-out: plasma clearance (converted)
[7] = B6129SF2/J (wild-type), iv, 1 mg/kg, WT mice 8 months, 1 mg/kg i.v.
[8] = B6129SF2/J (wild-type), iv, WT mice 8 months, 1 mg/kg i.v.
[9] = B6129SF2/J (wild-type), iv, WT mice 8 months, 1 mg/kg i.v., read-out: Cl p (converted)
[10] = iv, AD mice 8 months, 1 mg/kg i.v.

Question: With `COCCOCCn1c2ccccc2c2cc(/C=C/c3cc[n+](C)c4ccccc34)ccc21.[I-]` [SLM, (E)-4-(2-(9-(2-(2-methoxyethoxy)ethyl)-9H-carbazol-3-yl)-vinyl)-1-methyl-quinolin-1-iumiodide] as the compound, how does the half-life [1] read?
Answer: The half-life was over 24 h.

Question: And the Kp [2, 3]?
Answer: Its Kp is 11.

Question: And the clearance [2, 4]?
Answer: The clearance was 13.2 mL/min/kg.

Question: And the Vd [2, 5]?
Answer: The Vd was 1.3 ± 0.32 L/kg.

Question: What about the clearance [2, 6] of the same compound?
Answer: Its clearance is about 11.7 mL/min/kg.

Question: What about the Kp [2, 7] of the same compound?
Answer: The Kp was 2.5 ± 0.44.

Question: And the half-life [2, 8]?
Answer: The half-life was 6 ± 1 h.

Question: And the clearance [2, 9]?
Answer: Its clearance is 11.3 mL/min/kg.

Question: And the MRT inf [2, 8]?
Answer: Its MRT inf is 1.5 ± 0.18 h.

Question: And the Vd [2, 8]?
Answer: The Vd was 1.3 ± 0.58 L/kg.

Question: What about the half-life [2, 10] of the same compound?
Answer: Its half-life is 3.5 ± 1 h.

Question: And the MRT inf [2, 10]?
Answer: Its MRT inf is 1.7 ± 0.55 h.

Question: For `COCCOCCn1c2ccccc2c2cc(/C=C/c3cc[n+](CCO)c4ccccc34)ccc21` [SLOH, (E)-1-(2-hydroxyethyl)-4-(2-(9-(2-(2-metho-xyethoxy)-ethyl)-9H-carbazol-3-yl)vinyl) quinolin-1-ium chloride], which half-life [1] is on record?
Answer: Its half-life is over 24 h.

Question: What about the Kp [2, 3] of the same compound?
Answer: The Kp was 8.1.

Question: What about the clearance [2, 4] of the same compound?
Answer: Its clearance is 10 mL/min/kg.

Question: What about the Vd [2, 5] of the same compound?
Answer: Its Vd is 2.3 ± 0.71 L/kg.

Question: And the clearance [2, 6]?
Answer: Its clearance is about 10 mL/min/kg.

Question: What about the Kp [2, 7] of the same compound?
Answer: The Kp was 0.98 ± 0.22.

Question: And the half-life [2, 8]?
Answer: The half-life was 4.3 ± 1.1 h.

Question: And the clearance [2, 9]?
Answer: The clearance was 7.5 mL/min/kg.

Question: What about the MRT inf [2, 8] of the same compound?
Answer: Its MRT inf is 3 ± 1.2 h.

Question: What about the Vd [2, 8] of the same compound?
Answer: Its Vd is 2.1 ± 0.45 L/kg.

Question: And the half-life [2, 10]?
Answer: Its half-life is 4.8 ± 1.2 h.

Question: What about the MRT inf [2, 10] of the same compound?
Answer: The MRT inf was 2.9 ± 0.38 h.
